Experimental data published in US20170291890A1 (Epizyme, Inc., priority 2014, published 2017).

Target: T1, KDM4A (Homo sapiens, UniProt O75164)
T1 construct: N-terminal His-tagged KDM4A^1-350 was purchased from BPS Biosciences; His (N); purchased BPS Biosciences
T1 sequence (O75164 1-350): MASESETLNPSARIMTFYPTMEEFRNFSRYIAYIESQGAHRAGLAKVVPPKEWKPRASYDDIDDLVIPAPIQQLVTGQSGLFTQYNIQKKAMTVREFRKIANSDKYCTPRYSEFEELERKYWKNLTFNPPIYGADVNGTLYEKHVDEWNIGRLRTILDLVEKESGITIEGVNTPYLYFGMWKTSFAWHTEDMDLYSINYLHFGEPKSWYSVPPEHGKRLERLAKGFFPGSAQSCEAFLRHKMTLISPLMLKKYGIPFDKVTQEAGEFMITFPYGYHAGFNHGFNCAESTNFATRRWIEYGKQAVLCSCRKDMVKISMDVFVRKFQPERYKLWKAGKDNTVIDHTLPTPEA
Experiment: KDM4A Assay (SAMDI mass spectrometry demethylase assay)
Type: biochemical
Settings: N-terminal His-tagged KDM4A 1-350; class symbols; read-out: 4A IC50
Experimental: N-terminal His-tagged KDM4A^1-350 was purchased from BPS Biosciences. Peptides were synthesized by BioPeptide and all other reagents were purchased from Sigma-Aldrich at the highest level of purity possible. Assays were performed in a 50 μL volume in 384-well V-bottom polypropylene microplates (Greiner) at 25° C. Optimized 1× assay buffer was 50 mM HEPES (pH=8.0), 100 μM sodium ascorbate, 20 mM NaCl, 10 μM ammonium iron sulfate, 1 mM tris(2-carboxyethyl)phosphine (TCEP), 0.002% Tween-20, and 0.005% BSG. For compound screening, 35 μL of KDM4A^1-350 (final concentration, f.c.=5 nM) was added using a Multidrop Combi and preincubated with 1 μL of test compound (f.c.=10 μM) for 30 minutes and subsequently 15 μL of peptide with the following sequence NH2-ARTKQTAR(Kme2)STGGKAPRKQLA(K-Ahx-Biotin)-amide (f.c.=600 nM) and 2-oxoglutarate (f.c.=5 μM) was added by Multidrop Combi to begin the reaction. Reactions proceeded for 120 minutes and were stopped by the addition of 5 μL of formic acid (f.c.=0.5%) using a Multidrop Combi and then analyzed by SAMDI Tech Inc.
SAMDI Tech analyzed all reactions using self-assembled monoloayer desorption/ionization technology as previously described (Gerard-Levin Z A, Scholle M D, Eisenberg A H, et al.: High-throughput screening of small molecule libraries using SAMDI mass spectrometry. ACS Comb Sci 2011; 13:347-350). Briefly, a 2 μL sample of the stopped demethylase reactions were transferred to a SAMDI array coated with 384 biotin-neutravidin spots using a 384-channel pipet station. The SAMDI arrays were incubated for 1 h in a humidified chamber, followed by washing of the surface with deionized ultra-filtered water (DIUF) and drying under nitrogen. A matrix of 30 mg/ml 2′,4′,6′-Trihydroxyacetophenone monohydrate (THAP) in acetone was applied using a TPP Mosquito 1.2 μL tip by dispensing 50 nL on each of the 384 spots on the array. SAMDI-MS was run using acquisition method ReflectorPositiveUTX. The % conversion of substrate to product was calculated using the AUC of the substrate and product peptide peaks.
An IC50 value was determined by contacting various concentrations of a test compound with one of the KDM4A, KDM4C or KDMSC enzyme constructs and plotting a dose-response curve which associates the amount of inhibition of the enzyme relative to the concentration of the test compound. From the curve, the IC50 value (which represents the concentration of the test compound necessary to inhibit maximal enzymatic activity by 50%) was determined. Additionally, the slope of the linear range of the plotted curve, which indicates the speed with which the curve rises between the minimum and maximum, was calculated.

For `Cc1c(Nc2cnccc2C(=O)O)cnn1Cc1ccccc1` [Compound 33, 3-((1-benzyl-5-methyl-1H-pyrazol-4-yl)amino)isonicotinic acid], the IC50 was 1 to 100 nM.

Work on `Cc1cc(Nc2cnccc2C(=O)O)nn1-c1ccccc1` [Compound 60, 3-((5-methyl-1-phenyl-1H-pyrazol-3-yl)amino)isonicotinic acid] yielded an IC50 of 100 to 1000 nM.

`O=C(O)c1ccncc1Nc1nn(CCC(F)(F)F)cc1-c1ccncc1` [Compound 74, 3-((4-(pyridin-4-yl)-1-(3,3,3-trifluoropropyl)-1H-pyrazol-3-yl)amino)isonicotinic acid] showed an IC50 of 100 to 1000 nM.

`Cc1nn(C2CCN(C(C)C)CC2)cc1Nc1cnccc1C(=O)O` [Compound 102, 3-((1-(1-isopropylpiperidin-4-yl)-3-methyl-1H-pyrazol-4-yl)amino)isonicotinic acid] was tested, and the IC50 was 100 to 1000 nM.

With `CN(C)CCn1ncc(-c2ccccc2)c1Nc1cnccc1C(=O)O` [Compound 65, 3-((1-(2-(dimethylamino)ethyl)-4-phenyl-1H-pyrazol-5-yl)amino)isonicotinic acid] the IC50 was 1000 to 10000 nM.

`Cn1nc(-c2cccc(Cl)c2)cc1Nc1cnccc1C(=O)O` [Compound 25, 3-((3-(3-chlorophenyl)-1-methyl-1H-pyrazol-5-yl)amino) isonicotinic acid] showed an IC50 of 100 to 1000 nM.

In the case of `CN1CCN(CCn2cc(-c3ccccc3)c(Nc3cnccc3C(=O)O)n2)CC1` [Compound 34, 3-((1-(2-(4-Methylpiperazin-1-yl)ethyl)-4-phenyl-1H-pyrazol-3-yl)amino)isonicotinic acid], the IC50 is reported as 1000 to 10000 nM.

Work on `O=C(O)c1ccncc1Nc1nn(CCC(F)(F)F)cc1-c1ccccc1` [Compound 73, 3-((4-phenyl-1-(3,3,3-trifluoropropyl)-1H-pyrazol-3-yl)amino) isonicotinic acid] yielded an IC50 of 100 to 1000 nM.

`Cn1cc(-c2cccc(F)c2)c(Nc2cnccc2C(=O)O)n1` [Compound 9, 3-((4-(3-Fluorophenyl)-1-methyl-1H-pyrazol-3-yl)amino) isonicotinic acid] gave an IC50 of 100 to 1000 nM.

With `Cc1c(Nc2cnccc2C(=O)O)cnn1[C@H]1CC[C@@H](N)CC1` [Compound 79, 3-((1-((cis)-4-aminocyclohexyl)-5-methyl-1H-pyrazol-4-yl)amino)isonicotinic acid] the IC50 was 1 to 100 nM.

`Cn1ncc(-c2ccc(F)cc2)c1Nc1cnccc1C(=O)O` [Compound 8, 3-((4-(4-fluorophenyl)-1-methyl-1H-pyrazol-5-yl)amino) isonicotinic acid] was tested, and the IC50 was 1000 to 10000 nM.

`Cc1cn(-c2ccccc2)c(Nc2cnccc2C(=O)O)n1` [Compound 2] was tested, and the IC50 was 100 to 1000 nM.

For `COC(=O)c1ccncc1Nc1cn(C2CCN(C(C)C)CC2)nc1C` [Compound 101, methyl 3-((1-(1-isopropylpiperidin-4-yl)-3-methyl-1H-pyrazol-4-yl)amino)isonicotinate], the IC50 was 10000 to 100000 nM.

`N[C@H]1CC[C@@H](n2nc(-c3ccccc3)cc2Nc2cnccc2C(=O)O)CC1` [Compound 37, 3-((1-((cis)-4-aminocyclohexyl)-3-phenyl-1H-pyrazol-5-yl)amino)isonicotinic acid] showed an IC50 of 100 to 1000 nM.

For `Cc1nn(C2CCN(C(=O)c3ccccc3)CC2)cc1Nc1cnccc1C(=O)O` [Compound 97, 3-(1-(1-benzoylpiperidin-4-yl)-3-methyl-1H-pyrazol-4-ylamino) isonicotinic acid], the IC50 was 1000 to 10000 nM.

`Cc1nn(C2CCCNCC2)cc1Nc1cnccc1C(=O)O` (single isomer, unassigned) [Compound 114] was tested, and the IC50 was 100 to 1000 nM.

Compound `NCCn1nc(-c2ccccc2)cc1Nc1cnccc1C(=O)O` [Compound 26] has an IC50 of 1000 to 10000 nM.

`Cc1cn(-c2ccccc2)nc1Nc1cnccc1C(=O)O` [Compound 62, 3-((4-methyl-1-phenyl-1H-pyrazol-3-yl)amino) isonicotinic acid] gave an IC50 of 1 to 100 nM.

For `Cc1nn(C2CCCN(C)CC2)cc1Nc1cnccc1C(=O)O` (stereo not shown) [Compound 111, 3-(3-methyl-1-(1-methylazepan-4-yl)-1H-pyrazol-4-ylamino) isonicotinic acid], the IC50 was 100 to 1000 nM.

Compound `O=C(O)c1ccncc1Nc1nn(CCN2CCC(F)(F)CC2)cc1-c1ccccc1` [Compound 14, 3-((1-(2-(4,4-Difluoropiperidin-1-yl)ethyl)-4-phenyl-1H-pyrazol-3-yl)amino)isonicotinic acid] has an IC50 of 100 to 1000 nM.

Compound `O=C(O)c1ccncc1Nc1nn(CCN2CCC(F)(F)CC2)cc1-c1ccc(F)cc1` [Compound 45, 3-((1-(2-(4,4-difluoropiperidin-1-yl)ethyl)-4-(4-fluorophenyl)-1H-pyrazol-3-yl)amino)isonicotinic acid] has an IC50 of 100 to 1000 nM.

`COc1ccc(-n2nc(C)c(Nc3cnccc3C(=O)O)c2C)cc1` [Compound 75, 3-((1-(4-methoxyphenyl)-3,5-dimethyl-1H-pyrazol-4-yl)amino)isonicotinic acid] gave an IC50 of 100 to 1000 nM.

In the case of `Cc1n[nH]c(-c2ccccc2)c1Nc1cnccc1C(=O)O` [Compound 55, 3-((5-methyl-3-phenyl-1H-pyrazol-4-yl)amino)isonicotinic acid], the IC50 is reported as 1000 to 10000 nM.

With `Cc1nn(C2CCN(CC(F)(F)F)CC2)cc1Nc1cnccc1C(=O)O` [Compound 99, 3-(3-methyl-1-(1-(2,2,2-trifluoroethyl)piperidin-4-yl)-1H-pyrazol-4-ylamino)isonicotinic acid] the IC50 was 100 to 1000 nM.

In the case of `CN(C)CCCn1ncc(-c2ccccc2)c1Nc1cnccc1C(=O)O` [Compound 52, 3-((1-(3-(dimethylamino)propyl)-4-phenyl-1H-pyrazol-5-yl)amino) isonicotinic acid], the IC50 is reported as 1000 to 10000 nM.

Compound `Cn1ncc(-c2ccccc2)c1Nc1cnccc1C(=O)O` [Compound 1] has an IC50 of 100 to 1000 nM.

`COC(=O)c1ccncc1Nc1cnn(C2CCN(C(C)C)CC2)c1C` [Compound 103, methyl 3-((1-(1-isopropylpiperidin-4-yl)-5-methyl-1H-pyrazol-4-yl)amino)isonicotinate] showed an IC50 of 10000 to 100000 nM.

`Cc1c(Nc2cnccc2C(=O)O)cnn1C1CCN(C(C)C)CC1` [Compound 104] gave an IC50 of 100 to 1000 nM.

For `O=C(O)c1ccncc1Nc1cnn(CCN2CCC(F)(F)CC2)c1-c1ccccc1` [Compound 18, 3-((1-(2-(4,4-difluoropiperidin-1-yl)ethyl)-5-phenyl-1H-pyrazol-4-yl)amino)isonicotinic acid], the IC50 was 100 to 1000 nM.

`Cc1nn(-c2ccccc2C#N)cc1Nc1cnccc1C(=O)O` [Compound 70, 3-((1-(2-cyanophenyl)-3-methyl-1H-pyrazol-4-yl)amino) isonicotinic acid] was tested, and the IC50 was 100 to 1000 nM.

For `Cc1n[nH]c(C)c1Nc1cnccc1C(=O)O` [Compound 16, 3-((3,5-Dimethyl-1H-pyrazol-4-yl)amino)isonicotinic acid], the IC50 was 1000 to 10000 nM.

`Cc1c(Nc2cnccc2C(=O)O)cnn1C1CCN(CC(F)(F)F)CC1` [Compound 100, 3-(5-methyl-1-(1-(2,2,2-tri-fluoro-ethyl)piperidin-4-yl)-1H-pyrazol-4-ylamino)isonicotinic acid] showed an IC50 of 100 to 1000 nM.

`CCn1nc(-c2ccccc2)cc1Nc1cnccc1C(=O)O` [Compound 36, 3-((1-Ethyl-3-phenyl-1H-pyrazol-5-yl)amino)isonicotinic acid] gave an IC50 of 100 to 1000 nM.

Work on `Cc1nn(-c2ccccc2)c(C)c1Nc1cnccc1C(=O)O` [Compound 77, 3-((3,5-dimethyl-1-phenyl-1H-pyrazol-4-yl)amino)isonicotinic acid] yielded an IC50 of 1 to 100 nM.

`Cc1c(Nc2cnccc2C(=O)O)nn(CCN2CCC(F)(F)CC2)c1-c1ccccc1` [Compound 67, 3-((1-(2-(4,4-difluoropiperidin-1-yl)ethyl)-4-methyl-5-phenyl-1H-pyrazol-3-yl)amino)isonicotinic acid] showed an IC50 of 1 to 100 nM.

With `COCCn1nc(-c2ccccc2)cc1Nc1cnccc1C(=O)O` [Compound 27, 3-((1-(2-Methoxyethyl)-3-phenyl-1H-pyrazol-5-yl)amino) isonicotinic acid] the IC50 was 100 to 1000 nM.

`CN(C)CCn1cc(-c2ccccc2)c(Nc2cnccc2C(=O)O)n1` [Compound 64, 3-((1-(2-(dimethylamino)ethyl)-4-phenyl-1H-pyrazol-3-yl)amino)isonicotinic acid] was tested, and the IC50 was 1 to 100 nM.
